Source: patent publication US6056944A, “Pharmaceutical compositions for oral use including an NSAID and ceramides” (Synthelabo, priority 1995, dated 2000)

Tested on: inflammation of the adult rat paw
Assay: carragheenin-induced inflammation of the adult rat paw (edema volume)
Type: in vivo
Settings: gavage, 1 mg/kg, from 4 hours onwards, persisting up to 5 hours
Experimental: These tests consist in inducing inflammation of the adult rat paw and monitoring the development of the edema by measuring the volume of the paw.
The experimental conditions were as follows: rats, weighing from 200 to 220 g, were treated by gavage, 18 hours and 1 hour before administering the inflammatory agent, with the NSAI product to be studied, which was or was not combined with ceramides and which was administered in a volume of 0.5 ml. Control groups were given an 0.9% solution of sodium chloride.
The inflammatory reaction is induced by subcutaneously injecting 0.1 ml of a suspension of carragheenin in physiological saline. The volume of the paw is measured, using a mercury plethysmograph, before the inflammation starts, 30 minutes after it has started, and then every hour up to the 6th hour, and then finally 24 hours afterwards. The changes in volume are measured in cm on a graduated scale.
The tests were carried out with ketoprofen lysine, which was administered at 1 and 3 mg/kg and which was or was not combined with 0.5% of ceramides, and with ketoprofen, which was administered at 1 mg/kg and which was or was not combined with 1% of ceramides.

SMILES: CC(C(=O)O)c1cccc(C(=O)c2ccccc2)c1 (stereo not shown) [ketoprofen]
- anti-inflammatory effect as compared with the control: significant as compared with the control
